Where a SMILES comes first, the peptide text is derived from it.
Columns and labels:
[1] = target: Urokinase from human urine (Homo sapiens, UniProt P00749); experiment: Enzymatic assay, urokinase
[2] = target: Chymotrypsin, from human pancreas (Homo sapiens, UniProt P17538); experiment: Enzymatic assay, chymotrypsin; conditions: at 100 μM
Chymase, from human skin = target: T1, Chymase, from human skin (Homo sapiens, UniProt P23946); experiment: Enzymatic assay, chymase
T1 sequence (P23946 22-247): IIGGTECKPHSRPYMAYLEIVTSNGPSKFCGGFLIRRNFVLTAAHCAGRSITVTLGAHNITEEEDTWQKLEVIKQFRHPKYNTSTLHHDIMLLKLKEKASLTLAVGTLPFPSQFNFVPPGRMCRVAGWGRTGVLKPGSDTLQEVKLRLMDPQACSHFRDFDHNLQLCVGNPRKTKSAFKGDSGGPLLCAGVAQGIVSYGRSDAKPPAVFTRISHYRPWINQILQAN

[3] = system: Tryptase, from human lung; experiment: Enzymatic assay, tryptase; conditions: at 100 μM
[4] = target: T2, CathepsinG, from human neutrophils (Homo sapiens, UniProt P08311); experiment: Enzymatic assay, cathepsin G
T2 sequence (P08311 21-244): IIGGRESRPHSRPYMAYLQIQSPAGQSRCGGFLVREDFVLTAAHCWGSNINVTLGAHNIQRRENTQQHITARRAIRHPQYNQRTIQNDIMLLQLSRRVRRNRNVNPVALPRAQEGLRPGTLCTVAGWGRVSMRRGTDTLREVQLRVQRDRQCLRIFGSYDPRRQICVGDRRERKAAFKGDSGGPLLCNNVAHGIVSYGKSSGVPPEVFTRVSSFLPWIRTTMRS

[5] = target: T3, Elastase from human neutrophils (Homo sapiens, UniProt P08246); experiment: Enzymatic assay, elastase; conditions: Elastase IC50
T3 sequence (P08246 30-267): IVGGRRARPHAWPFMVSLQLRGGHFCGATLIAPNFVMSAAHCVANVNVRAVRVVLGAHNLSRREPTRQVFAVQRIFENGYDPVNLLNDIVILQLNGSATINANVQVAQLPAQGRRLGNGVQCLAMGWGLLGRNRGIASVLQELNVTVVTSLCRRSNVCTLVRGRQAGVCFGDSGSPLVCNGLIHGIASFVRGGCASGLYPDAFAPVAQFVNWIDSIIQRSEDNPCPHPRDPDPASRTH

[6] = target: Coagulation Factor Xa, from uman plasma (Homo sapiens, UniProt P00742); experiment: Enzymatic assay, coagulation factor Xa
Chain of Coagulation Factor Xa, from uman plasma (P00742 235-488 limits assumed): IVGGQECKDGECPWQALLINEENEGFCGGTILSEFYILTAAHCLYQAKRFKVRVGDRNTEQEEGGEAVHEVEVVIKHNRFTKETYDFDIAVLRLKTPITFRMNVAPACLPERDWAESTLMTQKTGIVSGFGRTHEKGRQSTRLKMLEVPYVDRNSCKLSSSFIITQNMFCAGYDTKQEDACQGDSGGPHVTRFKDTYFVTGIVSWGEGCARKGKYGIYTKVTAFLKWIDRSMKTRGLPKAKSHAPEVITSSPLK
Chain of Coagulation Factor Xa, from uman plasma (P00742 41-179 limits assumed): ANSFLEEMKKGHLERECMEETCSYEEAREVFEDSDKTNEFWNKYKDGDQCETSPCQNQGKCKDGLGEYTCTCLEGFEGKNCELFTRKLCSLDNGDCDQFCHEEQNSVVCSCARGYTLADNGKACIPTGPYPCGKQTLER

[7] = target: Trypsin, from human pancreas (Homo sapiens, UniProt P07477); experiment: Enzymatic assay, trypsin; conditions: at 100 μM
[8] = target: Thrombin, from Human Plasma (Homo sapiens, UniProt P00734); experiment: Enzymatic assay, thrombin

Chain of Chymotrypsin, from human pancreas (P17538 19-263): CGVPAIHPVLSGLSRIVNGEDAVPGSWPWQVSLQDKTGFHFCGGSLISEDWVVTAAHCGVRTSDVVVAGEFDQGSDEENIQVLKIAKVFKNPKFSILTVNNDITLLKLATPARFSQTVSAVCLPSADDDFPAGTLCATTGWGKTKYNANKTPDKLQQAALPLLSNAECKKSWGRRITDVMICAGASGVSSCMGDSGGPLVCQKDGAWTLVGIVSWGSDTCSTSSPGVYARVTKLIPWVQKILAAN

Compound	Urokinase at 100 μM % [1] [%]	Chymotrypsin at 100 μM % [2] [%]	Chymase at 100 μM % (Chymase, from human skin) [%]	Tryptase At 100 μM % [3] [%]	Cathepsin G at 100 μM % [4] [at 100%]	IC50 [5] [nM]	FXa at 100 μM % [6] [%]	Trypsin at 100 μM % [7] [%]	Thrombin at 100 μM % [8] [%]	IC50 ([4]; Cathepsin G IC50) [nM]
CCCCCCCC[C@@H]1NC(=O)[C@@H]2CCCN2C(=O)[C@H]2CCCN2C(=O)[C@H](CCC(N)=O)NC(=O)[C@@H]2CSSC[C@H](NC1=O)C(=O)N[C@@H]([C@@H](C)O)C(=O)N[C@@H](C)C(=O)N[C@@H](CO)C(=O)N[C@@H](CCCCCCCC)C(=O)N1CCC[C@H]1C(=O)N1CCC[C@H]1C(=O)N[C@@H](CCC(N)=O)C(=O)N2 [Ex. 148] (HELM PEPTIDE1{[CCCCCCCC[C@H](N[*:1])C(=O)[*:2]].C.T.A.S.[CCCCCCCC[C@H](N[*:1])C(=O)[*:2]].P.P.Q.C.Q.[dP].P}$PEPTIDE1,PEPTIDE1,2:R3-10:R3|PEPTIDE1,PEPTIDE1,1:R1-13:R2$$$V2.0)	12	91	7	30	52	11	8	9	32	–
CCCCCCCC[C@@H]1NC(=O)[C@H](CO)NC(=O)[C@H](C)NC(=O)[C@H]([C@@H](C)O)NC(=O)[C@@H]2CSSC[C@H](NC(=O)[C@H](CCC(N)=O)NC(=O)[C@@H]3CCCN3C(=O)[C@@H]3CCCN3C1=O)C(=O)N[C@@H](CCC(N)=O)C(=O)N1CCC[C@@H]1C(=O)N1CCC[C@H]1C(=O)N[C@@H](CCc1ccccc1)C(=O)N2 [Ex. 153] (HELM PEPTIDE1{[O=C([C@H](CCc1ccccc1)N[*:1])[*:2]].C.T.A.S.[CCCCCCCC[C@H](N[*:1])C(=O)[*:2]].P.P.Q.C.Q.[dP].P}$PEPTIDE1,PEPTIDE1,2:R3-10:R3|PEPTIDE1,PEPTIDE1,1:R1-13:R2$$$V2.0)	16	84	0	9	56	8.5	11	8	16	–
CCCCCCCC[C@@H]1NC(=O)[C@@H]2CCCN2C(=O)[C@H]2CCCN2C(=O)[C@H](Cc2ccc(O)cc2)NC(=O)[C@H]([C@@H](C)O)NC(=O)[C@H](CCC(N)=O)NC(=O)[C@@H]2CCCN2C(=O)[C@@H]2CCCN2C(=O)[C@H]([C@@H](C)CC)NC(=O)[C@H](CO)NC(=O)[C@H](C)NC(=O)[C@H]([C@@H](C)O)NC(=O)[C@H](CCC(N)=O)NC1=O [Ex. 154] (HELM PEPTIDE1{[CCCCCCCC[C@H](N[*:1])C(=O)[*:2]].Q.T.A.S.I.P.P.Q.T.Y.[dP].P}$PEPTIDE1,PEPTIDE1,1:R1-13:R2$$$V2.0)	1	4	0	15	27	8.3	0	0	7	–
C[C@@H]1NC(=O)[C@H]([C@@H](C)O)NC(=O)[C@@H]2CSSC[C@H](NC(=O)[C@H](CCC(N)=O)NC(=O)[C@@H]3CCCN3C(=O)[C@@H]3CCCN3C(=O)[C@H](CC3CCCCC3)NC(=O)[C@H](CO)NC1=O)C(=O)N[C@@H](Cc1ccccc1)C(=O)N1CCC[C@@H]1C(=O)N1CCC[C@H]1C(=O)N[C@@H](CCc1ccccc1)C(=O)N2 [Ex. 155] (HELM PEPTIDE1{[O=C([C@H](CCc1ccccc1)N[*:1])[*:2]].C.T.A.S.[Cha].P.P.Q.C.F.[dP].P}$PEPTIDE1,PEPTIDE1,2:R3-10:R3|PEPTIDE1,PEPTIDE1,1:R1-13:R2$$$V2.0)	12	83	3	30	52	8.2	9	18	19	–
CCCCCCCC[C@@H]1NC(=O)[C@@H]2CCCN2C(=O)[C@H]2CCCN2C(=O)[C@H](Cc2ccc(O)cc2)NC(=O)[C@H](CCCCN)NC(=O)[C@H](CCC(N)=O)NC(=O)[C@@H]2CCCN2C(=O)[C@@H]2CCCN2C(=O)[C@H]([C@@H](C)CC)NC(=O)[C@H](CO)NC(=O)[C@H](C)NC(=O)[C@H]([C@@H](C)O)NC(=O)[C@H](CCC(=O)O)NC1=O [Ex. 156] (HELM PEPTIDE1{[CCCCCCCC[C@H](N[*:1])C(=O)[*:2]].E.T.A.S.I.P.P.Q.K.Y.[dP].P}$PEPTIDE1,PEPTIDE1,1:R1-13:R2$$$V2.0)	7	5	0	15	46	7.5	0	0	17	–
CCCCCCCC[C@@H]1NC(=O)[C@H](CO)NC(=O)[C@H](C)NC(=O)[C@H]([C@@H](C)O)NC(=O)[C@@H]2CSSC[C@H](NC(=O)[C@H](CCC(N)=O)NC(=O)[C@@H]3CCCN3C(=O)[C@@H]3CCCN3C1=O)C(=O)N[C@@H](Cc1ccc(O)cc1)C(=O)N1CCC[C@@H]1C(=O)N[C@@H](CCC(N)=O)C(=O)N[C@@H](CCCC)C(=O)N2 [compound 169] (HELM PEPTIDE1{[Nle].C.T.A.S.[CCCCCCCC[C@H](N[*:1])C(=O)[*:2]].P.P.Q.C.Y.[dP].Q}$PEPTIDE1,PEPTIDE1,2:R3-10:R3|PEPTIDE1,PEPTIDE1,1:R1-13:R2$$$V2.0)	10.4	79.6	0	4.2	–	18	13.3	10.8	20.6	20300
CC[C@H](C)[C@@H]1NC(=O)[C@H](CO)NC(=O)[C@H](C)NC(=O)[C@H]([C@@H](C)O)NC(=O)[C@@H]2CSSC[C@H](NC(=O)[C@H](CCC(N)=O)NC(=O)[C@@H]3CCCN3C(=O)[C@@H]3CCCN3C1=O)C(=O)N[C@@H](Cc1ccc(O)cc1)C(=O)N[C@H](CCCCN)C(=O)N[C@@H](CCC(=O)O)C(=O)N[C@@H](CCc1ccccc1)C(=O)N2 [compound 174] (HELM PEPTIDE1{[O=C([C@H](CCc1ccccc1)N[*:1])[*:2]].C.T.A.S.I.P.P.Q.C.Y.[dK].E}$PEPTIDE1,PEPTIDE1,2:R3-10:R3|PEPTIDE1,PEPTIDE1,1:R1-13:R2$$$V2.0)	1	85	0	10	56	12	3	7	11	–
CCCCCCCC[C@@H]1NC(=O)[C@H](CCC(N)=O)NC(=O)[C@H]2CCCN2C(=O)[C@H](Cc2ccc(O)cc2)NC(=O)[C@@H]2CSSC[C@H](NC1=O)C(=O)N[C@@H]([C@@H](C)O)C(=O)N[C@@H](C)C(=O)N[C@@H](CO)C(=O)N[C@@H]([C@@H](C)CC)C(=O)N1CCC[C@H]1C(=O)N1CCC[C@H]1C(=O)N[C@@H](CCC(N)=O)C(=O)N2 [compound 177] (HELM PEPTIDE1{[CCCCCCCC[C@H](N[*:1])C(=O)[*:2]].C.T.A.S.I.P.P.Q.C.Y.[dP].Q}$PEPTIDE1,PEPTIDE1,2:R3-10:R3|PEPTIDE1,PEPTIDE1,1:R1-13:R2$$$V2.0)	12	86	3	15	54	7	7	5	17	–
